Common to all, as to type: cell-based
In assay [1] the test system is Aspergillus fumigatus AF293. The assay is described as follows: MIC, YAG medium, Aspergillus fumigatus AF293. The following applies: YAG medium; for MIC: Aspergillus fumigatus, AF293, read-out: MIC A Fum. 293. The protocol:
(§1) Measurement of Minimum Inhibitory Concentrations (MICs)
(§2) Between 1 and 5 mgs of compound were accurately weighed out into a sterile Eppendorf tube. The compound was dissolved in DMSO to give a solution containing 5 mg/ml. Tubes were stored at −20° C. until required.
(§3) On the day of testing thawed solutions were vortex mixed to ensure homogeneity. 30 μl of solution was removed and added to 570 μl of sterile water in a separate sterile Eppendorf. The thoroughly mixed solution was used to prepare a series of doubling dilutions in water, in a deep well plate. Eleven replicate plates were prepared using a Minitrak by aspirating 20 μl from each well into eleven clear polystyrene 96 well plates.
(§4) Spores of Aspergillus spp (Aspergillus fumigatus, Aspergillus terreus, Aspergillus niger and Aspergillus flavus) were harvested from cultures grown on Sabarauds agar for 5 days, and resuspended in PBS/Tween 80 to approx 1×10^7 cfu/ml Other filamentous fungi (Fusarium solani, Scedosporium spp., Trichophyton spp., Absidia corymbifera), were grown on Sabarauds agar for 2-10 days and spores/hyphae resuspended in PBS/Tween to give approx 1×10^7 cfU/ml. Candida species (Candida albicans, Candida glabrata, Candida krusei, Candida parapsilosis and Candida tropicalis) were grown on Sabarauds agar, cells were harvested from the agar using a sterile loop and resuspended in PBS/Tween 80 to approx 1×10^6 cfu/ml. Each organism suspension was diluted in RPMI medium, containing 2% glucose and 0.135M MOPS buffer (pH7.0) to 2×10^4 cfu/ml for Aspergillus spp and other filamentous fungi and 2×10^3 cfu/ml for yeast. 80 μl of an organism suspension was added to each well of the plate containing drug dilutions.
(§5) This produced MIC plates with a drug range 50-0.05 mg/L and organism inocula of 1-2×10^4 cfu/ml for Aspergillus spp and other filamentous fungi and 1-2×10^3 cfu/ml for yeasts. All plates were incubated for 24-48 hrs at 35° C. Growth was assessed by monitoring the optical density at 485 nm for each well. The MIC of a compound is the lowest drug concentration that inhibits growth of an organism by >80% compared with a drug free control. MICs are recorded as mg/L. Other growth media can be used for susceptibility testing, and the activity of the described compounds can also be assessed in a medium comprising, 1% glucose, 1% ammonium chloride and 0.5% yeast extract (YAG medium). To perform MIC tests in this medium, dilutions of compounds are prepared in microtitre plates as described above. Fungal strains to be tested are grown and harvested in an identical manner to that described above, each organism suspension is then diluted in YAG medium to 2×10^4 cfu/ml for Aspergillus spp and other filamentous fungi and 2×10^3 cfu/ml for yeast. 80 μl of an organism suspension was added to each well of the plate containing drug dilutions. This produced MIC plates with a drug range 50-0.05 mg/L and organism inocula of 1-2×10^4 cfu/ml for Aspergillus spp and other filamentous fungi and 1-2×10^3 cfu/ml for yeasts. All plates were incubated for 24 hrs at 35° C. Growth was assessed by monitoring the optical density at 485 nm for each well. The MIC of a compound is the lowest drug concentration that inhibits growth of an organism by >70% compared with a drug free control. MICs are recorded as mg/L. In cases where the MIC of an organism is […]0.05 mg/L the MIC is repeated using a concentration range of 0.5-0.0005 mg/L. MIC tests in YAG medium have more clear-cut endpoints and have slightly lower MICS than those performed in RPMI medium.
(§6) The following organisms were tested: Aspergillus fumigatus AF293 and Aspergillus fumigatus AF210, Aspergillus niger, Aspergillus terreus, Aspergillus favus, Candida albicans, Candida krusei, Candida tropicalis, Candida glabrata, Candida parapsilosis, Trichophyton rubrum, Trichophyton mentagrophytes, Scedosporium prolificans, Scedosporium apiospermum, Absidia corymbifera, Fusarium solani.

A further assay relates to Aspergillus niger. As to the kind of experiment: MIC, YAG medium, Aspergillus niger. The settings on record: YAG medium; for MIC: Aspergillus niger, read-out: MIC A Niger 1. The protocol: as §1, §2, §3, §4, §5, §6
Another assay has as its system Aspergillus terreus. The assay is described as follows: MIC, YAG medium, Aspergillus terreus. The settings on record: YAG medium; for MIC: Aspergillus terreus, read-out: MIC A Terreus 4. Here is the method:
as §1, §2, §3, §4, §5, §6

For another assay, the system named is Aspergillus flavus. As to the kind of experiment: MIC, YAG medium, Aspergillus flavus. The settings on record: YAG medium; for MIC: Aspergillus flavus, read-out: MIC A Flavus 01. The protocol:
as §1, §2, §3, §4, §5, §6

Assay [2] deals with Aspergillus fumigatus AF210. As to the kind of experiment: MIC, YAG medium, Aspergillus fumigatus AF210. The settings on record: YAG medium; for MIC: Aspergillus fumigatus, AF210, read-out: MIC A Fum. 210. The protocol: as §1, §2, §3, §4, §5, §6

In brackets after ≈: the same amount, converted by molar mass. A value given as a limit tells only on which side of the number the result lay.

By MIC is commonly meant the lowest concentration found to suppress growth.

`COc1ccc(NC(=O)C(=O)c2c(-c3ccco3)cc3ccccn23)cn1` [Example 170, 2-(2-Furan-2-yl-indolizin-3-yl)-N-(6-methoxy-pyridin-3-yl)-2-oxo-acetamide]: the MIC in assay [1] was above 50 µg/mL; in the assay on Aspergillus niger, 3.1 µg/mL (≈ 8.58 µM); in the assay on Aspergillus terreus, above 50 µg/mL; in the assay with Aspergillus flavus it was 3.1 µg/mL (≈ 8.58 µM); in assay [2], above 50 µg/mL.

In the case of `COc1cc(NC(=O)C(=O)c2c(-c3cccnc3)cc3ccccn23)cc(OC)c1OC` [Example 226, 2-Oxo-2-(2-pyridin-3-yl-indolizin-3-yl)-N-(3,4,5-trimethoxy-phenyl)-acetamide], the MIC in assay [1] was above 50 µg/mL; in the assay with Aspergillus niger, above 50 µg/mL; in the assay on Aspergillus terreus, 3.1 µg/mL (≈ 7.19 µM); with Aspergillus flavus, 1.6 µg/mL (≈ 3.71 µM); in assay [2] it was above 50 µg/mL.

Regarding `O=C(Nc1ccc(F)cc1)C(=O)c1c(-c2cccnc2)cc2ccccn12` [Example 198, N-(4-Fluoro-phenyl)-2-oxo-2-(2-pyridin-3-yl-indolizin-3-yl)-acetamide], the MIC in assay [1] was 3.1 µg/mL (≈ 8.63 µM); in the assay with Aspergillus niger, 1.6 µg/mL (≈ 4.45 µM); in the assay with Aspergillus terreus, 0.8 µg/mL (≈ 2.23 µM); in the assay with Aspergillus flavus it was 0.8 µg/mL (≈ 2.23 µM); in assay [2] it was above 50 µg/mL.

`Cc1ccccc1NC(=O)C(=O)c1c(-c2cccnc2)cc2ccccn12` [Example 213, 2-Oxo-2-(2-pyridin-3-yl-indolizin-3-yl)-N-o-tolyl-acetamide]: the MIC was found to be 6.25 µg/mL (≈ 17.6 µM) in assay [1]; 1.6 µg/mL (≈ 4.5 µM) with Aspergillus niger; 0.8 µg/mL (≈ 2.25 µM) in the assay on Aspergillus terreus; 0.4 µg/mL (≈ 1.13 µM) with Aspergillus flavus; 6.25 µg/mL (≈ 17.6 µM) in assay [2].

With `CC(C)(C#N)c1ccc(NC(=O)C(=O)c2c(-c3cccnc3)cc3ccccn23)cc1` [Example 225, N-[4-(Cyano-dimethyl-methyl)-phenyl]-2-oxo-2-(2-pyridin-3-yl-indolizin-3-yl)-acetamide], the MIC in assay [1] is 3.1 µg/mL (≈ 7.59 µM); with Aspergillus niger, 3.1 µg/mL (≈ 7.59 µM); in the assay with Aspergillus terreus, 0.1 µg/mL (≈ 0.245 µM); in the assay with Aspergillus flavus, 0.1 µg/mL (≈ 0.245 µM); in assay [2], 3.1 µg/mL (≈ 7.59 µM).

With `COc1ccc2cc(-c3ccccc3)c(C(=O)C(=O)Nc3ccc(OC)nc3)n2c1` [Example 195, 2-(6-Methoxy-2-phenyl-indolizin-3-yl)-N-(6-methoxy-pyridin-3-yl)-2-oxo-acetamide], the MIC in assay [1] came to 6.25 µg/mL (≈ 15.6 µM); with Aspergillus niger it was 1.6 µg/mL (≈ 3.99 µM); in the assay on Aspergillus terreus, 0.4 µg/mL (≈ 0.996 µM); with Aspergillus flavus, 0.4 µg/mL (≈ 0.996 µM); in assay [2] it was 6.25 µg/mL (≈ 15.6 µM).

As to `O=C(C(=O)N1CCc2ccccc21)c1c(-c2ccccc2)cc2ccccn12` [Example 218, 1-(2,3-Dihydro-indol-1-yl)-2-(2-phenyl-indolizin-3-yl)-ethane-1,2-dione], the MIC in assay [1] is above 50 µg/mL; in the assay on Aspergillus niger, 0.4 µg/mL (≈ 1.09 µM); in the assay on Aspergillus terreus, above 50 µg/mL; in the assay with Aspergillus flavus, above 50 µg/mL; in assay [2] it was above 50 µg/mL.

As for `O=C(NC1CCCCC1)C(=O)c1c(-c2ccccc2)cc2ccccn12` [Example 178, N-Cyclohexyl-2-oxo-2-(2-phenyl-indolizin-3-yl)-acetamide], the MIC was determined as 0.8 µg/mL (≈ 2.31 µM) in assay [1]; 0.2 µg/mL (≈ 0.577 µM) with Aspergillus niger; 0.1 µg/mL (≈ 0.289 µM) with Aspergillus terreus; 1.6 µg/mL (≈ 4.62 µM) in the assay with Aspergillus flavus; 0.8 µg/mL (≈ 2.31 µM) in assay [2].

In the case of `COC(=O)c1ccccc1NC(=O)C(=O)c1c(-c2ccccc2)cc2ccccn12` [Example 142, 2-[2-Oxo-2-(2-phenyl-indolizin-3-yl)-acetylamino]-benzoic acid methyl ester], the MIC in assay [1] is above 50 µg/mL; with Aspergillus niger, 0.8 µg/mL (≈ 2.01 µM); in the assay with Aspergillus terreus, above 50 µg/mL; in the assay on Aspergillus flavus it was above 50 µg/mL; in assay [2] it was above 50 µg/mL.

On to `CN(C(=O)C(=O)c1c(-c2cccnc2)cc2ccccn12)c1ccccc1` [Example 187, N-Methyl-2-oxo-N-phenyl-2-(2-pyridin-3-yl-indolizin-3-yl)-acetamide], for which the MIC is above 50 µg/mL in assay [1]; 3.1 µg/mL (≈ 8.72 µM) in the assay with Aspergillus niger; above 50 µg/mL in the assay with Aspergillus terreus; above 50 µg/mL with Aspergillus flavus; above 50 µg/mL in assay [2].

In the case of `COc1ccc(NC(=O)C(=O)c2c(-c3cccnc3)cc3ccccn23)c(OC)c1` [Example 174, N-(2,4-Dimethoxy-phenyl)-2-oxo-2-(2-pyridin-3-yl-indolizin-3-yl)-acetamide], the minimum inhibitory concentration (MIC) in assay [1] was determined as 6.25 µg/mL (≈ 15.6 µM); in the assay on Aspergillus niger, 1.6 µg/mL (≈ 3.99 µM); with Aspergillus terreus it was 0.2 µg/mL (≈ 0.498 µM); with Aspergillus flavus, 0.1 µg/mL (≈ 0.249 µM); in assay [2], 3.1 µg/mL (≈ 7.72 µM).

In the case of `COc1ccc2cc(-c3ccccc3)c(C(=O)C(=O)Nc3ccc(N(C)C)cc3)n2c1` [Example 242, N-(4-Dimethylamino-phenyl)-2-(6-methoxy-2-phenyl-indolizin-3-yl)-2-oxo-acetamide], the MIC stood at 0.8 µg/mL (≈ 1.93 µM) in assay [1]; 0.4 µg/mL (≈ 0.967 µM) in the assay on Aspergillus niger; 0.1 µg/mL (≈ 0.242 µM) with Aspergillus terreus; 0.05 µg/mL (≈ 0.121 µM) in the assay on Aspergillus flavus; 0.8 µg/mL (≈ 1.93 µM) in assay [2].

As for `COc1ccc(NC(=O)C(=O)c2c(-c3ccncc3)cc3ccccn23)cc1` [Example 162, N-(4-Methoxy-phenyl)-2-oxo-2-(2-pyridin-4-yl-indolizin-3-yl)-acetamide], the MIC in assay [1] was above 50 µg/mL; in the assay on Aspergillus niger, 3.1 µg/mL (≈ 8.35 µM); with Aspergillus terreus, above 50 µg/mL; in the assay with Aspergillus flavus, above 50 µg/mL; in assay [2] it was above 50 µg/mL.

On to `O=C(Nc1ccccc1F)C(=O)c1c(-c2cccnc2)cc2ccccn12` [Example 211, N-(2-Fluoro-phenyl)-2-oxo-2-(2-pyridin-3-yl-indolizin-3-yl)-acetamide], for which the MIC was 6.25 µg/mL (≈ 17.4 µM) in assay [1]; 1.6 µg/mL (≈ 4.45 µM) in the assay on Aspergillus niger; 0.2 µg/mL (≈ 0.557 µM) in the assay with Aspergillus terreus; 0.4 µg/mL (≈ 1.11 µM) in the assay with Aspergillus flavus; 6.25 µg/mL (≈ 17.4 µM) in assay [2].

For `CS(=O)(=O)Nc1ccc(NC(=O)C(=O)c2c(-c3ccccc3)cc3ccccn23)cc1` [Example 219, N-(4-Methanesulfonylamino-phenyl)-2-oxo-2-(2-phenyl-indolizin-3-yl)-acetamide], the MIC is 12.5 µg/mL (≈ 28.8 µM) in assay [1]; 3.1 µg/mL (≈ 7.15 µM) with Aspergillus niger; 6.25 µg/mL (≈ 14.4 µM) in the assay on Aspergillus terreus; above 50 µg/mL with Aspergillus flavus; 50 µg/mL (≈ 115 µM) in assay [2].

In the case of `CON=C(C(=O)Nc1ccc(OC)cc1)c1c(-c2ccccc2)cc2ccccn12` (mixture of isomers) [Example 298, 2-[(E/Z)-Methoxyimino]-N-(4-methoxy-phenyl)-2-(2-phenyl-indolizin-3-yl)-acetamide], the “MIC A Fum. 293” value in assay [1] was found to be 0.8 µg/mL. The “MIC A Niger 1” value with Aspergillus niger is 0.2 µg/mL. Also, the “MIC A Terreus 4” value against Aspergillus terreus was determined as 0.2 µg/mL. The “MIC A Flavus 01” value in the assay with Aspergillus flavus came to 0.1 µg/mL. For the same compound, the “MIC A Fum. 210” value in assay [2] came out at 0.8 µg/mL.

In the case of `COc1cc(NC(=O)C(=O)c2c(-c3ccccc3)cc3ccccn23)cc(OC)c1OC` [Example 222, 2-Oxo-2-(2-phenyl-indolizin-3-yl)-N-(3,4,5-trimethoxy-phenyl)-acetamide], the MIC amounted to 1.6 µg/mL (≈ 3.72 µM) in assay [1]; 3.1 µg/mL (≈ 7.2 µM) in the assay on Aspergillus niger; 0.4 µg/mL (≈ 0.929 µM) in the assay with Aspergillus terreus; 0.05 µg/mL (≈ 0.116 µM) in the assay with Aspergillus flavus; 1.6 µg/mL (≈ 3.72 µM) in assay [2].

As for `NC(=O)c1ccc(NC(=O)C(=O)c2c(-c3ccccc3)cc3ccccn23)cc1` [Example 161, 4-[2-Oxo-2-(2-phenyl-indolizin-3-yl)-acetylamino]-benzamide], the MIC in assay [1] was above 50 µg/mL; in the assay with Aspergillus niger, 6.25 µg/mL (≈ 16.3 µM); in the assay with Aspergillus terreus, above 50 µg/mL; in the assay with Aspergillus flavus it was above 50 µg/mL; in assay [2], above 50 µg/mL.

For the origin of these results see US8486962B2, “Antifungal agents” (F2G Ltd., priority 2005, dated 2013).
